How the values were obtained:
Experiment in all cases: relative viability (nuclei count vs DMSO), 5 days (fraction); higher = more cells survive
Quizartinib + Dasatinib = compound: CC(C)(C)c1cc(NC(=O)Nc2ccc(-c3cn4c(n3)sc3cc(OCCN5CCOCC5)ccc34)cc2)no1 [Quizartinib] + Cc1nc(Nc2ncc(C(=O)Nc3c(C)cccc3Cl)s2)cc(N2CCN(CCO)CC2)n1 [Dasatinib] (partner 0.075 µM)
Procedure, shortened: (§1)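 After 5 days of treatment, lung cancer cells in 1536-well plates were fixed and stained in a single step (final 0.05% Triton X-100, 1% formaldehyde, 1 ug/ml Hoechst) and their nuclei counted on 4× images. Treatment had been applied by pin tool the day after seeding as one drug alone or as a fixed anchor-drug dose with five library-drug doses (not always all listed) in √10 steps. Relative viability is the nuclei count of treated wells divided by that of vehicle wells, and values are medians of duplicate plates.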

Quizartinib + Alpelisib = compound: CC(C)(C)c1cc(NC(=O)Nc2ccc(-c3cn4c(n3)sc3cc(OCCN5CCOCC5)ccc34)cc2)no1 [Quizartinib] + Cc1nc(NC(=O)N2CCC[C@H]2C(N)=O)sc1-c1ccnc(C(C)(C)C(F)(F)F)c1 [Alpelisib] (partner 2 µM)
Procedure, shortened: as §1

YM155 + Phenformin = compound: COCC[n+]1c2c(n(Cc3cnccn3)c1C)C(=O)c1ccccc1C2=O [YM155] + N=C(N)NC(=N)NCCc1ccccc1 [Phenformin] (partner 250 µM)
Procedure, shortened: as §1

YM155 + Foretinib = compound: COCC[n+]1c2c(n(Cc3cnccn3)c1C)C(=O)c1ccccc1C2=O [YM155] + COc1cc2c(Oc3ccc(NC(=O)C4(C(=O)Nc5ccc(F)cc5)CC4)cc3F)ccnc2cc1OCCCN1CCOCC1 [Foretinib] (partner 0.25 µM)
Procedure, shortened: as §1

| Cell Line | relative viability (Quizartinib + Dasatinib; first compound 0.001 µM) | relative viability (Quizartinib + Dasatinib; first compound 0.003162 µM) | relative viability (Quizartinib + Dasatinib; first compound 0.01 µM) | relative viability (Quizartinib + Dasatinib; first compound 0.03162 µM) | relative viability (Quizartinib + Dasatinib; first compound 0.1 µM) | relative viability (Quizartinib + Alpelisib; first compound 0.001 µM) | relative viability (Quizartinib + Alpelisib; first compound 0.003162 µM) | relative viability (Quizartinib + Alpelisib; first compound 0.01 µM) | relative viability (Quizartinib + Alpelisib; first compound 0.03162 µM) | relative viability (Quizartinib + Alpelisib; first compound 0.1 µM) | relative viability (YM155 + Phenformin; first compound 0.002 µM) | relative viability (YM155 + Phenformin; first compound 0.006325 µM) | relative viability (YM155 + Phenformin; first compound 0.02 µM) | relative viability (YM155 + Phenformin; first compound 0.06325 µM) | relative viability (YM155 + Foretinib; first compound 0.002 µM) | relative viability (YM155 + Foretinib; first compound 0.006325 µM) | relative viability (YM155 + Foretinib; first compound 0.02 µM) | relative viability (YM155 + Foretinib; first compound 0.06325 µM) |
| --- | --- | --- | --- | --- | --- | --- | --- | --- | --- | --- | --- | --- | --- | --- | --- | --- | --- | --- |
| NCI-H838 | 0.272 | 0.329 | 0.276 | 0.296 | 0.257 | 0.876 | 0.942 | 0.958 | 0.968 | 0.593 | 0.54 | 0.625 | 0.583 | 0.717 | 1.04 | 1.02 | 1.09 | 0.479 |
| NCI-H23 |  | 0.733 | 0.696 | 0.712 | 0.853 |  | 0.556 | 0.679 | 0.645 | 0.687 | 0.735 | 0.774 | 0.729 | 0.634 | 0.643 | 0.718 | 0.959 | 0.785 |
| LOU-NH91 | 0.574 | 0.615 | 0.553 | 0.524 | 0.62 | 0.683 | 0.724 | 0.761 | 0.5 | 0.771 | 0.647 | 0.783 | 0.785 | 0.783 | 0.92 | 0.98 | 1.02 | 0.937 |
